# Measured values taken from patent publication US5166321A, “Cecropin polypetides with activity against Gram-positive and Gram-negative bacteria” (International Genetic Engineering, Inc., priority 1987, dated 1992).
# Square brackets hold non-standard residues; d marks the D form. Ends that are not written are not given here. Peptide text beside a SMILES is read from it. hSer = N[C@@H](CCO)C(=O)O
# Legend:
# S. typhimurium = assay: Agar-well halo assay of bactericidal activity; type: cell-based, Salmonella typhimurium; conditions: overnight incubation at 25° C.
# Method: (§1) The assay for antimicrobial activity was performed by pouring 10 ml of agar in TYE media containing about 10^7 viable cells of the test organisms. Wells, 2 mm in diameter, were punched in the agar plates. Aliquots of the modified cecropin-like polypeptides (2-12 ul) were then added to each well. The diameter of the inhibition zones, or haloes, around the wells, were measured after overnight incubation at 25° C.
# (§2) The activities of various cecropin-like polypeptides were tested against both Gram-negative and Gram-positive organisms. Anti-microbial activity against the Gram-negative organisms remained unaltered for most of the Gram-negative bacteria (except, i.e., Serratia marcescens) as shown in Table 1. […] To determine a standard of halo formation, the various modified cecropin-like polypeptides were also applied to E. coli D21. Activity shown in Tables 1 and 2 is expressed as the ratio of the radius of the cleared halo for each organism versus that for E. coli D21.
# B. subtilis = assay: Agar-well halo assay of bactericidal activity; type: cell-based, Bacillus subtilis; conditions: for Relative activity (ratio of the radius of the cleared halo versus that for E. coli D21): B. subtilis, overnight incubation at 25° C.
# Method: as §1, §2
# (§3) The cecropin-like polypeptide modified at the carboxy terminus with ethylenediamine and naturally occurring cecropin A were tested against a variety of organisms. The relative activities of the antimicrobial agents were expressed per nanomole of polypeptide applied to each well (Table 3).
# E. cloacae = assay: Agar-well halo assay of bactericidal activity; type: cell-based; conditions: overnight incubation at 25° C.
# Method: as §1, §2
# P. aeruginosa = assay: Agar-well halo assay of bactericidal activity; type: cell-based, Pseudomonas aeruginosa; conditions: overnight incubation at 25° C.
# Method: as §1, §2
# E. coli MC1061 = assay: Agar-well halo assay of bactericidal activity; type: cell-based, Escherichia coli; conditions: overnight incubation at 25° C.
# Method: as §1, §2
# Bacillus megaterium [1] = assay: Agar-well halo assay of bactericidal activity; type: cell-based; conditions: for Relative activity (ratio of the radius of the cleared halo versus that for E. coli D21): B. megaterium, overnight incubation at 25° C.
# Method: as §1, §2, §3
# Streptococcus faecalis = assay: Agar-well halo assay of bactericidal activity; type: cell-based; conditions: for Relative activity (ratio of the radius of the cleared halo versus that for E. coli D21): S. faecalis, overnight incubation at 25° C.
# Method: as §1, §2, §3
# Micrococcus luteus = assay: Agar-well halo assay of bactericidal activity; type: cell-based; conditions: for Relative activity (ratio of the radius of the cleared halo versus that for E. coli D21): M. luteus, overnight incubation at 25° C.
# Method: as §1, §2, §3
# Escherichia coli = assay: Agar-well halo assay, activity per nanomole; type: cell-based; conditions: per nanomole of polypeptide applied to each well
# Method: as §1, §3
# Bacillus megaterium [2] = conditions: from the literature; cited from earlier work
molecule,measurement,setting,value
CC[C@H](C)[C@H](NC(=O)CNC(=O)[C@H](CC(=O)O)NC(=O)[C@H](CCCNC(=N)N)NC(=O)[C@@H](NC(=O)[C@H](CC(N)=O)NC(=O)[C@H](CCC(N)=O)NC(=O)CNC(=O)[C@@H](NC(=O)[C@H](CCCCN)NC(=O)[C@H](CCC(=O)O)NC(=O)[C@@H](NC(=O)[C@H](CCCCN)NC(=O)[C@H](CCCCN)NC(=O)[C@H](Cc1ccccc1)NC(=O)[C@H](CC(C)C)NC(=O)[C@H](CCCCN)NC(=O)[C@H](Cc1c[nH]c2ccccc12)NC(=O)[C@@H](N)CCCCN)[C@@H](C)CC)C(C)C)[C@@H](C)CC)C(=O)N[C@H](C(=O)N[C@@H](CCCCN)C(=O)N[C@@H](C)C(=O)NCC(=O)N1CCC[C@H]1C(=O)N[C@@H](C)C(=O)N[C@H](C(=O)N[C@@H](C)C(=O)N[C@H](C(=O)N[C@H](C(=O)NCC(=O)N[C@@H](CCC(N)=O)C(=O)N[C@@H](C)C(=O)N[C@H](C(=O)N[C@@H](CCC(N)=O)C(=O)N[C@H](C(=O)N[C@@H](C)C(=O)N[C@@H](CCCCN)C(=O)N[C@@H](CCO)C(N)=O)[C@@H](C)CC)[C@@H](C)O)C(C)C)C(C)C)C(C)C)[C@@H](C)CC [CA-HS-CONH2] (H-KWKLFKKIEKVGQNIRDGIIKAGPAVAVVGQATQIAK[hSer]-NH2),Relative activity (ratio of the radius of the cleared halo versus that for E. coli D21),S. typhimurium,1.09
same,Relative activity (ratio of the radius of the cleared halo versus that for E. coli D21),B. subtilis,0.06 ± 0.06
same,Relative activity (ratio of the radius of the cleared halo versus that for E. coli D21),E. cloacae,0.86
same,Relative activity (ratio of the radius of the cleared halo versus that for E. coli D21),P. aeruginosa,0.71
same,Relative activity (ratio of the radius of the cleared halo versus that for E. coli D21),E. coli MC1061,0.81
same,Relative activity (ratio of the radius of the cleared halo versus that for E. coli D21),Bacillus megaterium [1],0.4
same,Relative activity (ratio of the radius of the cleared halo versus that for E. coli D21),Streptococcus faecalis,0
same,Relative activity (ratio of the radius of the cleared halo versus that for E. coli D21),Micrococcus luteus,1.4 ± 0.2
CC[C@H](C)[C@H](NC(=O)CNC(=O)[C@H](CC(=O)O)NC(=O)[C@H](CCCNC(=N)N)NC(=O)[C@@H](NC(=O)[C@H](CC(N)=O)NC(=O)[C@H](CCC(N)=O)NC(=O)CNC(=O)[C@@H](NC(=O)[C@H](CCCCN)NC(=O)[C@H](CCC(=O)O)NC(=O)[C@@H](NC(=O)[C@H](CCCCN)NC(=O)[C@H](CCCCN)NC(=O)[C@H](Cc1ccccc1)NC(=O)[C@H](CC(C)C)NC(=O)[C@H](CCCCN)NC(=O)[C@H](Cc1c[nH]c2ccccc12)NC(=O)[C@@H](N)CCCCN)[C@@H](C)CC)C(C)C)[C@@H](C)CC)C(=O)N[C@H](C(=O)N[C@@H](CCCCN)C(=O)N[C@@H](C)C(=O)NCC(=O)N1CCC[C@H]1C(=O)N[C@@H](C)C(=O)N[C@H](C(=O)N[C@@H](C)C(=O)N[C@H](C(=O)N[C@H](C(=O)NCC(=O)N[C@@H](CCC(N)=O)C(=O)N[C@@H](C)C(=O)N[C@H](C(=O)N[C@@H](CCC(N)=O)C(=O)N[C@H](C(=O)N[C@@H](C)C(=O)N[C@@H](CCCCN)C(=O)N[C@@H](CCO)C(=O)O)[C@@H](C)CC)[C@@H](C)O)C(C)C)C(C)C)C(C)C)[C@@H](C)CC [CA-HS-COOH] (H-KWKLFKKIEKVGQNIRDGIIKAGPAVAVVGQATQIAK[hSer]-OH),Relative activity (ratio of the radius of the cleared halo versus that for E. coli D21),S. typhimurium,1.07
same,Relative activity (ratio of the radius of the cleared halo versus that for E. coli D21),B. subtilis,0
same,Relative activity (ratio of the radius of the cleared halo versus that for E. coli D21),E. cloacae,0.79
same,Relative activity (ratio of the radius of the cleared halo versus that for E. coli D21),P. aeruginosa,0.76
same,Relative activity (ratio of the radius of the cleared halo versus that for E. coli D21),E. coli MC1061,0.86
same,Relative activity (ratio of the radius of the cleared halo versus that for E. coli D21),Bacillus megaterium [1],0.5
same,Relative activity (ratio of the radius of the cleared halo versus that for E. coli D21),Streptococcus faecalis,0
same,Relative activity (ratio of the radius of the cleared halo versus that for E. coli D21),Micrococcus luteus,0.1 ± 0.1
KWKLFKKIEKVGQNIRDGIIKAGPAVAVVGQATQIAK [CA-COOH],Relative activity (ratio of the radius of the cleared halo versus that for E. coli D21),S. typhimurium,1.09
same,Relative activity (ratio of the radius of the cleared halo versus that for E. coli D21),B. subtilis,0
same,Relative activity (ratio of the radius of the cleared halo versus that for E. coli D21),E. cloacae,0.84
same,Relative activity (ratio of the radius of the cleared halo versus that for E. coli D21),P. aeruginosa,0.70
same,Relative activity (ratio of the radius of the cleared halo versus that for E. coli D21),E. coli MC1061,0.84
same,Relative activity (ratio of the radius of the cleared halo versus that for E. coli D21),Bacillus megaterium [1],0.2
same,Relative activity (ratio of the radius of the cleared halo versus that for E. coli D21),Streptococcus faecalis,0
same,Relative activity (ratio of the radius of the cleared halo versus that for E. coli D21),Micrococcus luteus,0
"KWKLFKKIEKVGQNIRDGIIKAGPAVAVVGQATQIAK-NH2 [CA-NH2, cecropin A, reference compound]",Relative activity (ratio of the radius of the cleared halo versus that for E. coli D21),S. typhimurium,1.06
same,Relative activity (ratio of the radius of the cleared halo versus that for E. coli D21),B. subtilis,0.1 ± 0.05
same,Activity per Nanomole (radius of the inhibitory ring),"B. subtilis; Bacillus subtilus, per nanomole of polypeptide applied to each well",< 0.5 millimeters
same,Activity per Nanomole (radius of the inhibitory ring),Escherichia coli,6.1 millimeters
same,Relative activity (ratio of the radius of the cleared halo versus that for E. coli D21),E. cloacae,0.92
same,Sensitivity of Bacillus megaterium to the cecropin,Bacillus megaterium [2],highly sensitive
same,Relative activity (ratio of the radius of the cleared halo versus that for E. coli D21),P. aeruginosa,0.70
same,Relative activity (ratio of the radius of the cleared halo versus that for E. coli D21),E. coli MC1061,0.80
same,Relative activity (ratio of the radius of the cleared halo versus that for E. coli D21),Bacillus megaterium [1],0.7
same,Activity per Nanomole (radius of the inhibitory ring),"Bacillus megaterium [1]; Bacillus megaterium, per nanomole of polypeptide applied to each well",5.1 millimeters
same,Relative activity (ratio of the radius of the cleared halo versus that for E. coli D21),Streptococcus faecalis,0
same,Activity per Nanomole (radius of the inhibitory ring),"Streptococcus faecalis; Streptococcus faecalis, per nanomole of polypeptide applied to each well",< 0.5 millimeters
same,Relative activity (ratio of the radius of the cleared halo versus that for E. coli D21),Micrococcus luteus,1.2 ± 0.2
same,Activity per Nanomole (radius of the inhibitory ring),"Micrococcus luteus; Micrococcus luteus, per nanomole of polypeptide applied to each well",6.1 millimeters
"cecropin B (KWKVFKKIEKMGRNIRNGIVKAGPAIAVLGEAKAL; ends and bridges not checked; UniProt P01508 27-61, looked up) [major natural antibacterial peptide purified from immune hemolymph]",Sensitivity of Bacillus megaterium to the cecropin,Bacillus megaterium [2],highly sensitive
cecropin D,Sensitivity of Bacillus megaterium to the cecropin,Bacillus megaterium [2],relatively resistant
